Results on 13 compounds are retold here after paper PMC6155659, “Application of the Triazolization Reaction to Afford Dihydroartemisinin Derivatives with Anti-HIV Activity” (Molecules : A Journal of Synthetic Chemistry and Natural …, 2017).

Like-named read-outs stand apart in the source and are kept apart here.

One may read the IC50 as the midpoint of a concentration-inhibition curve. In general, CC50 refers to the concentration that lowers cell viability or growth by half. One may read the melting point as the temperature, or range, at which the solid turns liquid.

The subject of one data set is HIV-2 (ROD). As to the kind of experiment: Anti-HIV-2 (ROD) activity in MT-4 cell cultures, MTT method. The format is cell-based. The protocol: (§1) The newly synthesized dihydroartemisinin triazole derivatives were evaluated for their inhibitory effects (IC50) on the replication of wild-type HIV-1 (IIIB) and HIV-2 (ROD) in MT-4 cell cultures, in parallel with their cytotoxicities (CC50) using the 3-(4,5-dimethylthiazol-2-yl)-2,5-diphenyl tetrazolium bromide (MTT) method. A series of nucleoside reverse transcriptase inhibitors (NRTIs)—i.e., azidothymidine (AZT), lamivudine (3TC) and didanosine (DDI)—and non-nucleoside reverse transcriptase inhibitors (NNRTIs)—i.e., nevirapine (NVP), efavirenz (EFV), and etravirine (ETR)—were included as reference compounds. The biological results are represented as IC50 and CC50 values in Table 3.
On the technique in general: Tetrazolium assays rely on reduction of a dye to a coloured formazan, in cell work by metabolically active cells.

The next data set has as its system wild-type HIV-1 (IIIB). Description: Anti-HIV-1 (IIIB) activity in MT-4 cell cultures, MTT method. The format is cell-based. As to conditions: for anti-HIV-1 wild-type activity (in words): MT-4 cells, HIV-1 IIIB. The protocol: as §1
A short description of data set [1]: Cytotoxicity in mock-infected MT-4 cell cultures, MTT method. The format is cell-based. As to conditions: human. The protocol: as §1
In data set [2] the test system is double reverse transcriptase mutant (K103N; Y181C) HIV-1 strain (RES056). As to the kind of experiment: Activity against double reverse transcriptase mutant HIV-1 strain RES056 in MT-4 cell cultures, MTT method. The format is cell-based. As to conditions: for IC50: Human immunodeficiency virus 1, MT4, read-out: IC50 HIV-1 Strain RES056; for inhibitory activity against RES056 (in words): K103N, Y181C double RT mutant HIV-1, MT-4 cells. As to the method: as §1
Most of the new triazole analogues of dihydroartemisinin are completely devoid of anti-HIV activity. […] The active molecules were also evaluated for their inhibitory activity against a double reverse transcriptase mutant (K103N; Y181C) HIV-1 strain (RES056). […] Therefore, the active β-tetralone derivatives most probably act via an NNRTI-type mode of action.

Another data set relates to MT-4 cells. Description: Cytotoxicity in mock-infected MT-4 cell cultures, MTT method. Type of data set: cell-based. Conditions: cell culture. As to the method: as §1
The mark [3] stands for this setting: Human immunodeficiency virus 2, MT4, 50% protection of MT-4 cell cultures against virus-induced cytotoxicity, MTT method, read-out: IC50 HIV-2 Strain ROD.
[4] abbreviates: Human immunodeficiency virus 1, IIIB, MT4, 50% protection of MT-4 cell cultures against virus-induced cytotoxicity, MTT method, read-out: IC50 HIV-1 Strain IIIB.
The mark [5] stands for this setting: mock-infected MT-4 cells, concentration reducing viability of mock-infected MT-4 cell cultures by 50%, MTT method, read-out: CC50.
Where [6] appears, read: Human immunodeficiency virus 2, MT4, read-out: IC50 HIV-2 Strain ROD.
Where [7] appears, read: concentration reducing viability of mock-infected MT-4 cell cultures by 50%, MTT method, read-out: CC50.

For `C[C@H]1[C@H](OCCn2nnc3c2-c2ccccc2CC3)O[C@@H]2O[C@@]3(C)CCC4[C@H](C)CC[C@@H]1[C@]42OO3` (stereo partly drawn) [Compound 8a, 1-(2-(((3R,6R,8aS,9R,10R,12R,12aR)-3,6,9-Trimethyldecahydro-12H-3,12-epoxy[1,2]dioxepino[4,3-i]isochromen-10-yl)oxy)ethyl)-4,5-dihydro-1H-naphtho[1,2-d][1,2,3]triazole], the IC50 in the data set on HIV-2 (ROD) (setting [3]) and with wild-type HIV-1 (IIIB) (setting [4]) was over 10.3 µM in each case. Further, in the data set with wild-type HIV-1 (IIIB), the “anti-HIV-1 wild-type activity (in words)” value was “did not show any activity”. In data set [1] (setting [5]), the CC50 was over 10.3 µM.

For the compound `C[C@H]1[C@H](OCCn2nncc2-c2ccc(Br)c(Br)c2)O[C@@H]2O[C@@]3(C)CCC4[C@H](C)CC[C@@H]1[C@]42OO3` (stereo partly drawn), the melting point was in the range of 105 to 106 °C.

As for `COc1ccc2c(c1)-c1nnn(CCO[C@@H]3O[C@@H]4O[C@@]5(C)CCC6[C@H](C)CC[C@@H]([C@H]3C)[C@]64OO5)c1CC2` (stereo partly drawn) [Compound 8e, 8-Methoxy-3-(2-(((3R,6R,8aS,9R,10R,12R,12aR)-3,6,9-trimethyldecahydro-12H-3,12-epoxy[1,2]dioxepino[4,3-i]isochromen-10-yl)oxy)ethyl)-4,5-dihydro-3H-naphtho[1,2-d][1,2,3]triazole], the IC50 was over 14.9 µM in data set [2], over 14.9 µM in the data set with HIV-2 (ROD) (setting [6]) and 5.18 µM with wild-type HIV-1 (IIIB) (setting [4]). Also, the “inhibitory activity against RES056 (in words)” value (“inhibitory activity” below) in data set [2] was “completely lose their inhibitory activity”. For the same compound, in the data set with wild-type HIV-1 (IIIB), the “anti-HIV-1 wild-type activity (in words)” value is “inhibitory to HIV-1 replication”. In addition, in the data set on MT-4 cells, the “cytotoxicity (in words)” value is listed as “limited cytotoxicity”. Besides, the CC50 in data set [1] (setting [5]) amounted to 14.9 µM.

Turning to `Cc1cn([C@H]2C[C@H](N=[N+]=[N-])[C@@H](CO)O2)c(=O)[nH]c1=O` [Azidothymidine, azidothymidine, reference compound], the figures for the IC50 (in data set [2]; in the data set with HIV-2 (ROD) (setting [3]); in the data set with wild-type HIV-1 (IIIB) (setting [4])) were 0.0071 µM, 0.0082 µM and 0.0064 µM, respectively. In data set [1], the CC50 is over 7.5 µM.

For `Cc1ccnc2c1NC(=O)c1cccnc1N2C1CC1` [Nevirapine, nevirapine], the IC50 in data set [2] is over 15 µM; with HIV-2 (ROD) (setting [3]), over 15 µM; in the data set on wild-type HIV-1 (IIIB) (setting [4]) it was 0.075 µM. Besides, the “inhibitory activity” value in data set [2] is “completely lose their inhibitory activity”. The CC50 in data set [1] (setting [7]) is over 15 µM.

Take `COc1cc(Cn2nnc3c2CCC(C(=O)O[C@@H]2O[C@@H]4O[C@@]5(C)CCC6[C@H](C)CC[C@@H]([C@H]2C)[C@]64OO5)C3)cc(OC)c1OC` (stereo partly drawn): the melting point was in the range of 80 to 81 °C.

For `COc1cc2c(cc1OC)-c1nnn(CCO[C@@H]3O[C@@H]4O[C@@]5(C)CCC6[C@H](C)CC[C@@H]([C@H]3C)[C@]64OO5)c1CC2` (stereo partly drawn) [Compound 8c, 7,8-Dimethoxy-3-(2-(((3R,6R,8aS,9R,10R,12R,12aR)-3,6,9-trimethyldecahydro-12H-3,12-epoxy[1,2]dioxepino[4,3-i]isochromen-10-yl)oxy)ethyl)-4,5-dihydro-3H-naphtho[1,2-d][1,2,3]triazole], the IC50 is over 21.2 µM in data set [2], over 21.2 µM in the data set with HIV-2 (ROD) (setting [6]) and 4.06 µM in the data set with wild-type HIV-1 (IIIB) (setting [4]). The “inhibitory activity” value in data set [2] is “completely lose their inhibitory activity”. Besides, the “anti-HIV-1 wild-type activity (in words)” value with wild-type HIV-1 (IIIB) is “inhibitory to HIV-1 replication”. The “cytotoxicity (in words)” value in the data set on MT-4 cells is “limited cytotoxicity”. The CC50 in data set [1] (setting [5]) was 21.2 µM.

In the case of `Cc1cc(C#N)cc(C)c1Oc1nc(Nc2ccc(C#N)cc2)nc(N)c1Br` [Etravirine, etravirine], the IC50 in data set [2] is 0.045 µM; in the data set on HIV-2 (ROD) (setting [6]), over 2.29 µM; in the data set on wild-type HIV-1 (IIIB) (Human immunodeficiency virus 1, MT4, read-out: IC50 HIV-1 Strain IIIB), 0.0034 µM. In addition, the “inhibitory activity” value in data set [2] is reported as “only slightly affected”. Also, in data set [1] (setting [5]), the CC50 was determined as 2.29 µM.

With `O=C1Nc2ccc(Cl)cc2[C@@](C#CC2CC2)(C(F)(F)F)O1` [Efavirenz, efavirenz], the values for the IC50 (in data set [2]; in the data set on HIV-2 (ROD) (setting [3]); in the data set on wild-type HIV-1 (IIIB) (setting [4])) were 0.18 µM, over 6.3 µM and 0.0024 µM, respectively. In addition, the “inhibitory activity” value in data set [2] was “only slightly affected”. Further, in data set [1] (setting [7]), the CC50 is over 6.3 µM.

Regarding `O=c1[nH]cnc2c1ncn2[C@H]1CC[C@@H](CO)O1` [Didanosine, didanosine, reference compound], the IC50 was determined as 82.1 µM with HIV-2 (ROD) (setting [3]) and 76 µM in the data set on wild-type HIV-1 (IIIB) (setting [4]). Besides, in data set [1], the CC50 was over 212 µM.

`C[C@H]1[C@H](OCCn2nnc3c2C[C@@H]2CC[C@@H]4[C@H](CC[C@]5(C)[C@@H](O)CC[C@@H]45)[C@@]2(C)C3)O[C@@H]2O[C@@]3(C)CCC4[C@H](C)CC[C@@H]1[C@]42OO3` (stereo partly drawn) displayed a melting point of 96 to 97 °C.

In turn, `C[C@H]1[C@H](OCCn2nnc3c2CCc2ccccc2-3)O[C@@H]2O[C@@]3(C)CCC4[C@H](C)CC[C@@H]1[C@]42OO3` (stereo partly drawn) [Compound 8b, 3-(2-(((3R,6R,8aS,9R,10R,12R,12aR)-3,6,9-Trimethyldecahydro-12H-3,12-epoxy[1,2]dioxepino[4,3-i]isochromen-10-yl)oxy)ethyl)-4,5-dihydro-3H-naphtho[1,2-d][1,2,3]triazole] came in with a melting point of 104 to 105 °C. Further, in data set [2], the IC50 is over 31.5 µM and the “inhibitory activity” value is “completely lose their inhibitory activity”. In the data set on HIV-2 (ROD) (setting [6]), the IC50 is over 31.5 µM. For the same compound, the half-maximal inhibitory concentration (IC50) in the data set with wild-type HIV-1 (IIIB) (setting [4]) is 2.78 µM. Besides, the “anti-HIV-1 wild-type activity (in words)” value with wild-type HIV-1 (IIIB) is on record as “inhibitory to HIV-1 replication”. Besides, in the data set with MT-4 cells, the “cytotoxicity (in words)” value is listed as “limited cytotoxicity”. In data set [1] (setting [5]), the CC50 turned out to be 31.5 µM.

In the case of `Nc1ccn([C@@H]2CS[C@H](CO)O2)c(=O)n1` [Lamivudine, lamivudine, reference compound], the IC50 turned out to be 9.9 µM in the data set with HIV-2 (ROD) (setting [3]) and 2.53 µM with wild-type HIV-1 (IIIB) (setting [4]). In addition, in data set [1], the 50% cytotoxic concentration (CC50) was over 87.2 µM.
